Each block holds one molecule with its values, some of them ahead of it.
Legend:
[1] = biological target: T1, SvePatA (Streptomyces venezuelae, UniProt F2RA54); assay: coupled NADH assay, initial rate; CD shift also seen with […] Asn; format: biochemical; conditions: allosteric activator; co-substrates Ac-CoA and SveAcs
T1 construct: gene SVEN_0867; gene amplified from genomic DNA, pET-28a, E. coli BL21-DE3, purified; ACT-GNAT domains
T1 sequence (F2RA54 1-488): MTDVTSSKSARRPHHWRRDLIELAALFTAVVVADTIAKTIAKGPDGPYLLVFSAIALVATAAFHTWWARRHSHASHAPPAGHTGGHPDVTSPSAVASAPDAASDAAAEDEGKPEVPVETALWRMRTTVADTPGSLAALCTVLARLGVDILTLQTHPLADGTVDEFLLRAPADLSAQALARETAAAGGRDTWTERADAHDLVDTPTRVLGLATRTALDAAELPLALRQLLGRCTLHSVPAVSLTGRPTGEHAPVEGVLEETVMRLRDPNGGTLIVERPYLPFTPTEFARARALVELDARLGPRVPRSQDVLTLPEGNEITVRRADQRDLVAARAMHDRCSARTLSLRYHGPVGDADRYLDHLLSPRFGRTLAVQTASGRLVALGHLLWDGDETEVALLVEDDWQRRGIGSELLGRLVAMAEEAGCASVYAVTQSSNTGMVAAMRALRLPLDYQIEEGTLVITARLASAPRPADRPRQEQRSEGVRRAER

[2] = biological target: T2, SvePatA (Streptomyces venezuelae, UniProt F2RA54, K112A); assay: acetyltransferase activity with Asn; format: biochemical; conditions: allosteric; co-substrates Ac-CoA and SveAcs
T2 construct: gene SVEN_0867; gene amplified from genomic DNA, pET-28a, E. coli BL21-DE3, purified; ACT-GNAT domains
T2 sequence (F2RA54 entry or part of it K112A): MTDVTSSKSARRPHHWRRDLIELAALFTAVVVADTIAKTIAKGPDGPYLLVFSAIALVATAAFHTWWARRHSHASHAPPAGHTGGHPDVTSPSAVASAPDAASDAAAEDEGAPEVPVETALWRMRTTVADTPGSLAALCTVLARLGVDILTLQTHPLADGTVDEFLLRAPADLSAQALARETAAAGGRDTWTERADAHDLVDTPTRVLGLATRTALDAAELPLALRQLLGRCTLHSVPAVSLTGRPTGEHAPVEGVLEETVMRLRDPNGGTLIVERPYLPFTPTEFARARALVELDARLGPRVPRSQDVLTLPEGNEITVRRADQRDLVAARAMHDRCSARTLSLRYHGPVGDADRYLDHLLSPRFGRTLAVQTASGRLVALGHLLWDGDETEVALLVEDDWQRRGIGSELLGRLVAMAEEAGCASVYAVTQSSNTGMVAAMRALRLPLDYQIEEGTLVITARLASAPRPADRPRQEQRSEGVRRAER

[3] = biological target: T3, AmiPatA (Actinosynnema mirum, UniProt C6WC99); assay: coupled NADH assay, initial rate; CD shift also seen; format: biochemical; conditions: allosteric activator, ACT domain; co-substrates Ac-CoA and AmiAcs
T3 construct: gene Amir_5672; gene amplified from genomic DNA, pET-28a, E. coli BL21-DE3, purified; ACT-GNAT domains
T3 sequence (C6WC99 1-372): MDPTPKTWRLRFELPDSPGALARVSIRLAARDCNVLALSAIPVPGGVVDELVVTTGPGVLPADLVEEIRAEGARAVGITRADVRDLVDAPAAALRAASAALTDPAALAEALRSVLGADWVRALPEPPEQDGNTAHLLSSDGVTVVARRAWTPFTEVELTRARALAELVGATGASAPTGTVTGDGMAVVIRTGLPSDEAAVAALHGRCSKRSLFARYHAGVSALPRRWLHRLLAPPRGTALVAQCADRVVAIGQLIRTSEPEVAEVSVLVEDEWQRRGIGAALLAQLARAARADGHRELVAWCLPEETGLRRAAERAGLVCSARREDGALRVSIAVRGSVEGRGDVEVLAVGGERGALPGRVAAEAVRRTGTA

[4] = substrate: CC(=O)SCCNC(=O)CCNC(=O)[C@H](O)C(C)(C)COP(=O)(O)OP(=O)(O)OC[C@H]1O[C@@H](n2cnc3c(N)ncnc32)[C@H](O)[C@@H]1OP(=O)(O)O; assay: purified protein; format: biochemical, Actinosynnema mirum; conditions: co-substrate AmiAcs; no Cys

% of initial rate without Asn (2.23 to 3.92 nmol NADH per min/ml) [1]: 176%
Molecule: NC(=O)C[C@H](N)C(=O)O [Asn]
activation still observed [2]: Allosteric effect of Asn on SvePatA activity was still observed in two mutants K112A

% of initial rate without Cys (3.8 to 6.8 μM/min) [3]: 179%
Molecule: N[C@@H](CS)C(=O)O [Cys]

B1: AmiPatA (Actinosynnema mirum DSM 43827) (protein)
chain: MDPTPKTWRLRFELPDSPGALARVSIRLAARDCNVLALSAIPVPGGVVDELVVTTGPGVLPADLVEEIRAEGARAVGITRADVRDLVDAPAAALRAASAALTDPAALAEALRSVLGADWVRALPEPPEQDGNTAHLLSSDGVTVVARRAWTPFTEVELTRARALAELVGATGASAPTGTVTGDGMAVVIRTGLPSDEAAVAALHGRCSKRSLFARYHAGVSALPRRWLHRLLAPPRGTALVAQCADRVVAIGQLIRTSEPEVAEVSVLVEDEWQRRGIGAALLAQLARAARADGHRELVAWCLPEETGLRRAAERAGLVCSARREDGALRVSIAVRGSVEGRGDVEVLAVGGERGALPGRVAAEAVRRTGTA
notes: gene amplified from genomic DNA, pET-28a, E. coli BL21-DE3, purified; ACT-GNAT domains
Km [4]: 5.5 ± 1.1 µM
kcat [4]: 0.19 ± 0.008 s⁻¹
kcat/Km [4]: 36000 ± 8000 M⁻¹ s⁻¹
